In US20180344690A1, “Methods and Formulation for Enhancing Response to Radiotherapy” (The Board of Trustees of the Leland Stanford Junior …, priority 2017, published 2018):
Like-named read-outs stand apart in the source and are kept apart here.

Key:
[1] = system: AML; conditions: cited from earlier work
[2] = system: CML; conditions: cited from earlier work
[3] = system: peripheral blood (PB) CD34+ counts; conditions: cited from earlier work; for absolute CD34+ cell count (mean+/−SE): all patients
[4] = system: human serum albumin and 1-acid glycoprotein; conditions: cited from earlier work
[5] = cited from earlier work
[6] = cited from earlier work; remark: listed apart in the source
[7] = cited from earlier work; for mean AUC from time 0 to 24 hours postdose, higher than in subjects with normal renal function: single 240 μg/kg SC
[8] = Preclinical animal toxicology studies; conditions: in vivo
[9] = system: BCR-ABL(+) leukemia (CML); conditions: cited from earlier work
[10] = cited from earlier work; remark: listed apart in the source
[11] = system: APL; conditions: cited from earlier work
[12] = system: U251 human GBM cells
[13] = system: AML; conditions: cited from earlier work; remark: listed apart in the source
[14] = up to 320 μg/kg, healthy volunteers; cited from earlier work
[15] = system: glioblastoma
Experimental: Normalized relative cerebral blood volume (rCBV) ratios were calculated by the mean rCBV within the 95% isodose radiation field one month post-radiation as compared to contralateral white matter outside of the radiation field.

[16] = cited from earlier work; remark: listed apart in the source
[17] = system: glioblastoma; assay: clinical
From the text: (§1) Patients underwent dynamic susceptibility contrast perfusion MRI (DSC-MRI) for quantification of relative cerebral blood volume (rCBV) values by region-of-interest analysis.

[18] = clinical; conditions: human, in vivo
From the text: as §1

[19] = system: MM; conditions: cited from earlier work
[20] = system: CD34+ stem cells; conditions: cited from earlier work
[21] = system: CD34+ cell mobilization; conditions: cited from earlier work
[22] = in vivo; conditions: human
[23] = cited from earlier work; remark: listed apart in the source
[24] = 23 evaluable patients, with bortezomib

c1cc(CN2CCCNCCNCCCNCC2)ccc1CN1CCCNCCNCCCNCC1 [Plerixafor]
early death due to complications from infection ([1]; 2 patients): 6% | treatment failure due to persistent disease ([1]; 14 patients): 44% | complete remission (CR+CRi) ([1]; 32 evaluable patients at 240 μg/kg, historical CR rates 25-35%): 50% | platelet recovery (plt >50 k/mm3), median ([1]; Plerixafor + MEC, range 20-40 d): 26 days | neutrophil recovery (ANC >500/mm3), median ([1]; Plerixafor + MEC, range 21-37): 27 days | time of peak AML blast mobilization ([1]; after administration): 6 to 8 h | One year KM estimate of overall survival ([1]; in vivo): 56% | common grade 3 adverse events ([1]; in vivo): cytopenias and infections | hyperleukocytosis ([1]; in vivo): No evidence of hyperleukocytosis | mobilization of AML blasts into the peripheral circulation, mean increase ([1]; range 0.9-7.3 fold): 2.5 fold | circulating neutrophils (days 4, 8, 15, 22, 29 during infusion vs Screening (FIG. 8A)): increase of neutrophils | circulating monocytes (days 4, 8, 15, 22, 29 during infusion vs Screening (FIG. 8B)): increase in monocytes | leukemia burden in mice ([2]; added to nilotinib, vs nilotinib alone): significantly reduced | mobilization of leukemic cells ([2]; in vivo): mobilize leukemic cells in vivo | total white blood cell (WBC) and peripheral blood (PB) CD34+ counts ([3]; 4 and 6 hours following a single injection): rapid and statistically significant increase | absolute CD34+ cell count (mean+/−SE) ([3]; 4 hours after injection, baseline 2.6+/−0.7/μL, P=0.002): 15.6 ± 3.9 µL⁻¹ | absolute CD34+ cell count ([3]; 4 hours, 160 μg/kg group): 11.3 ± 2.7 µL⁻¹ | absolute CD34+ cell count ([3]; 4 hours, 240 μg/kg group): 19.3 ± 6.9 µL⁻¹ | absolute CD34+ cell count (mean+/−SE) ([3]; 6 hours after injection, P=0.003): 16.2 ± 4.3 µL⁻¹ | absolute CD34+ cell count ([3]; 6 hours, 160 μg/kg group): 11.3 ± 2.5 µL⁻¹ | absolute CD34+ cell count ([3]; 6 hours, 240 μg/kg group): 20.4 ± 7.6 µL⁻¹ | toxicities ([3]; single injection 160 or 240 μg/kg): only grade 1 toxicities were observed | protein binding [4]: extensively protein bound | MTD ([5]; animals, adverse neurologic effects): approximately 70 mg/m^2 | dose limiting toxicities (DLTs) ([5]; including severe dyspnea, tremors, ventral recumbency, convulsions at higher dosages): primarily adverse neurologic events | adverse events that occurred more frequently with Plerixafor than placebo ([6]; G-CSF plus Plerixafor 240 μg/kg SC): insomnia, headache, dizziness, diarrhea, nausea, flatulence, abdominal pain, vomiting, abdominal distention, dry mouth, stomach discomfort, constipation, dyspepsia, hypoaesthesia oral, arthralgia, musculoskeletal pain, hyperhidrosis, erythema, injection site reactions, fatigue, and malaise | tolerability ([6]; Plerixafor 240 μg/kg in conjunction with G-CSF, NHL or MM): well-tolerated | PMN and PLT engraftment of mobilized hematopoietic stem cells ([6]; Plerixafor and G-CSF compared to G-CSF alone, both trials): equally capable of prompt and durable PMN and PLT engraftment | effect of renal impairment on maximal plasma concentrations ([7]; human, in vivo): no effect | mean AUC from time 0 to 24 hours postdose, higher than in subjects with normal renal function ([7]; mild renal impairment): 7% | mean AUC from time 0 to 24 hours postdose, higher than in subjects with normal renal function ([7]; moderate renal impairment): 32% | mean AUC from time 0 to 24 hours postdose, higher than in subjects with normal renal function ([7]; severe renal impairment): 39% | safety profile ([7]; subjects with renal impairment vs controls): similar | Plerixafor clearance ([7]; subjects with renal impairment, positively correlated with creatinine clearance): reduced | approximate human equivalent dose of early adverse neurologic effects [8]: 470-940 μg/kg | sensitivity to the tyrosine kinase inhibitors Imatinib and Nilotinib [9]: confer added sensitivity | tumor cell chemotaxis [9]: inhibit tumor cell chemotaxis | Sinus tachycardia (all Grade 1) ([10]; 400 and 480 μg/kg doses): observed in most subjects | maximum tolerated dose ([10]; doses of up to 480 μg/kg SC and IV in healthy volunteers and cancer patients): has not been established | common adverse events ([10]; doses up to 480 μg/kg): diarrhea, injection site erythema, perioral numbness, sinus tachycardia, headache, nausea, abdominal distention and injection site pain | anti-tumor effect of Plerixafor alone ([11]; in these experiments (leukemia models)): no detectable anti-tumor effect | median overall survival ([11]; untreated control 18 days, cytarabine vs cytarabine+Plerixafor p<0.0006): 19 days | blood flow to a tumor ([12]; after 40 days, radiotherapy and Plerixafor compared to radiotherapy alone (FIG. 5A)): lower blood flow | tumor size ([12]; over 80 days, radiation and Plerixafor (continuous infusion) compared to other treatment groups (FIG. 5B, 5C)): reduced tumor size | Plerixafor unrelated deaths ([13]; 4 patients, 240 μg/kg): 17% | complete response (CR) ([13]; 14 of 21 patients with available data): 67% | DLTs ([13]; 240, 320, 400, 480 μg/kg IV): No DLTs have been reported | patients with adverse events at least possibly related to Plerixafor ([13]; Eighteen patients): 86% | patients with Grade 3 Plerixafor-related AEs ([13]; Four patients): 19% | patients with Grade 4 related AEs ([13]; One patient, 480 μg/kg cohort, thrombocytopenia and asymptomatic pulmonary embolism): 5% | time of peak PB AML blasts ([13]; day 2, after administration): 2 to 4 h | increase in PB AML blasts, mean ([13]; day 7): 1.51 fold | median time to neutrophil (0.5×109/L) recovery for responders ([13]; in vivo): 19.5 (range 13-35) days | median time to platelet (100×109/L) recovery for responders ([13]; in vivo): 21 (range 17-37) days | rise in PB AML blasts, mean increase ([13]; infusion on day 2): 3.01 fold | severity of the majority of related adverse events ([13]; mainly gastrointestinal disorders): grade ½ | pharmacokinetics over the tested dose range [14]: linear pharmacokinetics | rate of out of field recurrence ([15]; as of Feb. 7, 2017, expected 20%, p<0.03, Fisher's exact test): 77% | rCBV measured by DSC-MRI within the 95% isodose field ([15]; one month after radiation therapy, patients receiving Plerixafor compared to control, p<0.02): significant reduction | rCBV out of the radiation field ([15]; one-month post radiation therapy, Plerixafor compared to control patients): similar | median terminal half-life ([16]; 240 μg/kg SC with G-CSF): 4.6 h | time of peak plasma concentrations ([16]; 240 μg/kg SC with G-CSF, in most patients): 0.5 h | time of maximum fold increase in circulating cells ([16]; after Plerixafor injection, all patients): approximately 10 hours | median maximum increase in the number of circulating cells from baseline ([16]; range, 3.0- to 5.5-fold): 4.2 fold | rCBV in the tumor bed compared to the postoperative pre-RT scan ([17]; DSC-MRI at 1 and 6 months post-RT, P<0.02, one way ANOVA): lower rCBV | patients alive ([17]; currently): 7 of 9 | dose limiting toxicities (DLTs) ([17]; human, in vivo): no DLTs observed | longest survival since diagnosis ([17]; human, in vivo): 18 months | recommended phase II dose ([17]; human, in vivo, iv, 4 weeks): 16.6 µg/kg/h | concentration at 7 days [18]: ≥ 100 ng/mL | MR [19, 24]: 13% | complete response (CR) [19, 24]: 4% | overall response rate (including MR) [19, 24]: 22% | progressive disease (PD) as best response [19, 24]: 13% | very good partial response (VGPR) [19, 24]: 4% | Dose limiting toxicities including insomnia, restlessness, and psychosis ([19]; dose level 6 (Plerixafor 400 μg/kg and bortezomib 1.3 mg/m^2)): observed in two patients | de-adhesion of MM cells and accessory cells ([19]; in vivo): transient de-adhesion of MM cells and accessory cells in vivo in most of the patients | Grade 3 anemia ([19]; with bortezomib): 10% | Grade 3 bone fracture due to myeloma bone disease ([19]; with bortezomib): 10% | Grade 3 hypercalcemia ([19]; with bortezomib): 10% | Grade 3 hyponatremia ([19]; with bortezomib): 10% | Grade 3 hypophosphatemia ([19]; with bortezomib): 20% | Grade 3 lymphopenia ([19]; with bortezomib): 40% | grade 4 toxicities ([19]; with bortezomib): no grade 4 toxicities | tolerability of the combination ([19]; with bortezomib): well tolerated | proportion of patients with MM able to mobilize the target (6×10^6 cells/kg) CD34+ cells ([20]; Plerixafor 240 μg/kg added to G-CSF compared with G-CSF alone): significantly increased the proportion of patients | apheresis days to reach target ([20]; Plerixafor added to G-CSF): significantly fewer apheresis days | most frequently reported adverse effects ([21]; human, in vivo): injection site reactions, gastrointestinal (GI) effects, paresthesias, and headaches | augmentation of CD34+ cell mobilization by G-CSF ([21]; on average): 3.8 fold | safety and tolerability ([21]; single SC dose 160 or 240 μg/kg alone or added to G-CSF): generally safe and well-tolerated | MTD [22]: ~1.8 mg/kg | Cmax and AUC0-∞ across the four dose levels ([23]; 10, 20, 40, 80 μg/kg): dose proportionality | Cmax ([23]; IV, 40 μg/kg): 292.8±67.0 | Cmax ([23]; IV, 80 μg/kg): 503.9±29.6 | Cmax ([23]; SC, 40 μg/kg): 123.5±27.9 | Cmax ([23]; SC, 80 μg/kg): 238.3±17.3 | terminal elimination half-life ([23]; following a single dose, bi-exponential elimination from plasma): 3.5 to 5 h | time of peak plasma levels ([23]; following subcutaneous administration): 0.5 to 1 h | bioavailability ([23]; human, in vivo): 80-90%
